Laboratory results published in ChEMBL document CHEMBL4334551, “Discovery of a New Sulfonamide Hepatitis B Capsid Assembly Modulator” (ACS Med Chem Lett, 2020).
One block for each molecule: values may come before it.

What was measured:
Hepatitis B virus [1] = assay: Antiviral activity in HBV infected in human HepAD38 cells assessed as reduction in viral replication incubated for 65 hrs by RT-PCR analysis; assay type: functional, organism-based; conditions: HePAD38, 65 h
[2] = Cytotoxicity against human HepAD38 cells assessed as reduction in cell viability incubated for 65 hrs by EZ-Cytox cell viability assay; assay type: cell-based
Cytochrome P450 1A2 = biological target: T1, Cytochrome P450 1A2 (Homo sapiens, UniProt P05177); assay: Inhibition of human CYP1A2 using phenacetin as substrate by LC/MS/MS analysis; assay type: ADME
T1 sequence (P05177 whole entry): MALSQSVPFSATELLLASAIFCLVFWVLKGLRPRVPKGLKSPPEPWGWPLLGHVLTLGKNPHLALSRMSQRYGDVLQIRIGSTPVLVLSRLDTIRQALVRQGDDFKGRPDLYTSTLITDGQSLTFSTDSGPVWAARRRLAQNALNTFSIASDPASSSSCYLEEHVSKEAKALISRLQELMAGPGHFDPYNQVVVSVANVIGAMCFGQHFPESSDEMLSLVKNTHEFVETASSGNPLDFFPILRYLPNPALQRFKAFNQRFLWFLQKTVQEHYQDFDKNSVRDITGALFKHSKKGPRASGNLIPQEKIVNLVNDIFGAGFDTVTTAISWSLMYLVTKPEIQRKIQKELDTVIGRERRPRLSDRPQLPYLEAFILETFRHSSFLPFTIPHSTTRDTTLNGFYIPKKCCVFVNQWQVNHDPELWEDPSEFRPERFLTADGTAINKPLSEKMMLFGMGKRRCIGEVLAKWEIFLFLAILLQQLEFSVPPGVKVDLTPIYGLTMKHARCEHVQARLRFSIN

[3] = Cmax in Sprague-Dawley rat at 5 mg/kg, po measured upto 24 hrs by LC/MS/MS analysis; assay type: ADME, organism-based; parameters: dose 5 mg/kg, route oral; conditions: in vivo
[4] = Stability in rat liver microsomes assessed as half life at 1 uM incubated for 30 mins by LC/MS/MS analysis; assay type: ADME, Microsome
[5] = Protein binding in rat plasma assessed as compound remaining at 5 uM incubated for 4 hrs by LC/MS/MS analysis; assay type: ADME, cell-free; conditions: read-out: PPB
Cytochrome P450 3A4 = Cytochrome P450 3A4 (Homo sapiens, UniProt P08684); assay: Inhibition of human CYP3A4 using […] as substrate by LC/MS/MS analysis; assay type: ADME
Chain of Cytochrome P450 3A4 (P08684 whole entry): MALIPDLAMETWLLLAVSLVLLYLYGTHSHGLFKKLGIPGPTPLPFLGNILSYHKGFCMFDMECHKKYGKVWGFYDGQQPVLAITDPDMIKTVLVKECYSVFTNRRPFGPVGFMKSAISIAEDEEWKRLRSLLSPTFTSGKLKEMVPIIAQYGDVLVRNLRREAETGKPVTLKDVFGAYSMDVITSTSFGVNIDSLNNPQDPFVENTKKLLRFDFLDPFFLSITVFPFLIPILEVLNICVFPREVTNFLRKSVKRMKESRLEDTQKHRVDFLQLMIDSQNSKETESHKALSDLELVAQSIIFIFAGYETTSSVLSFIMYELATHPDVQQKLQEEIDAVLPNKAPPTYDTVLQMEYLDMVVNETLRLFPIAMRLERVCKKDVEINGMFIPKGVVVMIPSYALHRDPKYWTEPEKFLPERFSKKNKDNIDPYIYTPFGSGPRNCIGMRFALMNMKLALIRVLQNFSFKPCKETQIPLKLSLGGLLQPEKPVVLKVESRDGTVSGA

[6] = Stability in human liver microsomes assessed as compound remaining at 1 uM incubated for 30 mins by LC/MS/MS analysis; assay type: ADME, Microsome; conditions: read-out: Stability
[7] = biological target: T2, Voltage-gated inwardly rectifying potassium channel KCNH2 (Homo sapiens, UniProt Q12809); assay: Inhibition of human ERG by competitive fluorescence polarization assay
T2 sequence (Q12809 whole entry): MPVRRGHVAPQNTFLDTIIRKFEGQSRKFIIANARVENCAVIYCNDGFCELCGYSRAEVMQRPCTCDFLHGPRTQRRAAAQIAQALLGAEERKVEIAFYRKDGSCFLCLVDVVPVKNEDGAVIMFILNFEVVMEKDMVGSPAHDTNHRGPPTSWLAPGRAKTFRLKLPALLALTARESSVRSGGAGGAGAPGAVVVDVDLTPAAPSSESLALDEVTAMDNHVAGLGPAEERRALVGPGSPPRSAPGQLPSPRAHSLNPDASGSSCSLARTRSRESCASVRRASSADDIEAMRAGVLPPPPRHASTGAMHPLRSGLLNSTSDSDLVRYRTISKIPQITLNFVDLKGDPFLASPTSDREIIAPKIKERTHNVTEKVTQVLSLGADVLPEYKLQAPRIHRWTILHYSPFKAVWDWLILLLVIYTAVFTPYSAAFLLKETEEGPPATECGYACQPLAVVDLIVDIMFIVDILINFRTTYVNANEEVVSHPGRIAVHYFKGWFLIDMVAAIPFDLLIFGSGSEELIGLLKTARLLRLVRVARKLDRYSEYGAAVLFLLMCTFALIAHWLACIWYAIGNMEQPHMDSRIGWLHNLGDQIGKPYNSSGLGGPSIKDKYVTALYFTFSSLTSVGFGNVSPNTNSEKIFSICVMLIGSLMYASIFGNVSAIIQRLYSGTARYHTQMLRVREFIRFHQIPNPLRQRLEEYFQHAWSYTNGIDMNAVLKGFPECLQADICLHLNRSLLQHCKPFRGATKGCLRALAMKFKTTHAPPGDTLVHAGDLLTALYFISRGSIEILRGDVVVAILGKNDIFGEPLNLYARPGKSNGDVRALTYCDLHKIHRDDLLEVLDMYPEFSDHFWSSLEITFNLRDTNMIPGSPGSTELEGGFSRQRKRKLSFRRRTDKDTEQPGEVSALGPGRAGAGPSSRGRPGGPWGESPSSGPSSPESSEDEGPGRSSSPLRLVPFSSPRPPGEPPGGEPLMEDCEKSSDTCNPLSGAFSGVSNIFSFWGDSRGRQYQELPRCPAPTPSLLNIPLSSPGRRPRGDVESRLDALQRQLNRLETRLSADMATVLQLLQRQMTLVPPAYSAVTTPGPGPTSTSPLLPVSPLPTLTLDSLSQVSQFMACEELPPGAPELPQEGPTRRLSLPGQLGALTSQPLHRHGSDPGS

[8] = Oral bioavailability in Sprague-Dawley rat at 5 mg/kg measured upto 24 hrs by LC/MS/MS analysis; assay type: ADME, organism-based; conditions: in vivo
[9] = Volume of distribution at steady state in Sprague-Dawley rat at 5 mg/kg, iv measured upto 24 hrs by LC/MS/MS analysis; assay type: ADME, organism-based; conditions: in vivo, read-out: Vdss
[10] = Stability in rat liver microsomes assessed as compound remaining at 1 uM incubated for 30 mins by LC/MS/MS analysis; assay type: ADME, Microsome; conditions: read-out: Stability
[11] = AUClast in Sprague-Dawley rat at 5 mg/kg, iv measured upto 24 hrs by LC/MS/MS analysis; assay type: ADME, organism-based; parameters: time < 24 hr, dose 5 mg/kg, route intravenous; conditions: in vivo
[12] = Protein binding in human plasma assessed as compound remaining at 5 uM incubated for 4 hrs by LC/MS/MS analysis; assay type: ADME, cell-free; conditions: read-out: PPB (converted)
[13] = Tmax in Sprague-Dawley rat at 5 mg/kg, po measured upto 24 hrs by LC/MS/MS analysis; assay type: ADME, organism-based; conditions: in vivo
[14] = biological target: T2, Voltage-gated inwardly rectifying potassium channel KCNH2; assay: Inhibition of human ERG expressed in human HEK293 cells by patch clamp assay; assay type: cell-based
Cytochrome P450 2C9 = Cytochrome P450 2C9 (Homo sapiens, UniProt P11712); assay: Inhibition of human CYP2C9 using tolubutamide as substrate by LC/MS/MS analysis; assay type: ADME
Chain of Cytochrome P450 2C9 (P11712 whole entry): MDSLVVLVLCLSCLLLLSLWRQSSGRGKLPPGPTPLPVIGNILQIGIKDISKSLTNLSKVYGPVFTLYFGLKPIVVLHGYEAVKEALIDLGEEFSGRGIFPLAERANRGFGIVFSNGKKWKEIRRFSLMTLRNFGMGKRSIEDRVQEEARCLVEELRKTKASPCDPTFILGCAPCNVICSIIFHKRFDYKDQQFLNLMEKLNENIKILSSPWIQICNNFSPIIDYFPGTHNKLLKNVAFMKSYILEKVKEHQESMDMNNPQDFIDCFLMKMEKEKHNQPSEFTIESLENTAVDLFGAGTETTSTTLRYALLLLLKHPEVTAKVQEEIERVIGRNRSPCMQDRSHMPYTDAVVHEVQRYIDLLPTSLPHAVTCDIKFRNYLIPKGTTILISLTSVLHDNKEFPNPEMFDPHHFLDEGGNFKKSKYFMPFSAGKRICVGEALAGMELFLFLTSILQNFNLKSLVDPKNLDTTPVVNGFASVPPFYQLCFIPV

[15] = Stability in rat plasma assessed as compound remaining at 5 uM incubated for 4 hrs by LC/MS/MS analysis; assay type: ADME, cell-free; conditions: read-out: Stability
Hepatitis B virus [16] = assay: Potency index, ratio of EC50 of NVR3-778 to EC50 of compound for antiviral activity in HBV infected in human HepAD38 cells assessed as reduction in viral replication incubated for 65 hrs by RT-PCR analysis; assay type: functional
[17] = Half life in Sprague-Dawley rat at 5 mg/kg, po measured upto 24 hrs by LC/MS/MS analysis; assay type: ADME, organism-based; conditions: in vivo
[18] = AUClast in Sprague-Dawley rat at 5 mg/kg, po measured upto 24 hrs by LC/MS/MS analysis; assay type: ADME, organism-based; parameters: dose 5 mg/kg, time < 24 hr, route oral; conditions: in vivo
[19] = Half life in Sprague-Dawley rat at 5 mg/kg, iv measured upto 24 hrs by LC/MS/MS analysis; assay type: ADME, organism-based; conditions: in vivo
Cytochrome P450 2D6 = Cytochrome P450 2D6 (Homo sapiens, UniProt P10635); assay: Inhibition of human CYP2D6 using dextromethorphan as substrate by LC/MS/MS analysis; assay type: ADME
Chain of Cytochrome P450 2D6 (P10635 whole entry): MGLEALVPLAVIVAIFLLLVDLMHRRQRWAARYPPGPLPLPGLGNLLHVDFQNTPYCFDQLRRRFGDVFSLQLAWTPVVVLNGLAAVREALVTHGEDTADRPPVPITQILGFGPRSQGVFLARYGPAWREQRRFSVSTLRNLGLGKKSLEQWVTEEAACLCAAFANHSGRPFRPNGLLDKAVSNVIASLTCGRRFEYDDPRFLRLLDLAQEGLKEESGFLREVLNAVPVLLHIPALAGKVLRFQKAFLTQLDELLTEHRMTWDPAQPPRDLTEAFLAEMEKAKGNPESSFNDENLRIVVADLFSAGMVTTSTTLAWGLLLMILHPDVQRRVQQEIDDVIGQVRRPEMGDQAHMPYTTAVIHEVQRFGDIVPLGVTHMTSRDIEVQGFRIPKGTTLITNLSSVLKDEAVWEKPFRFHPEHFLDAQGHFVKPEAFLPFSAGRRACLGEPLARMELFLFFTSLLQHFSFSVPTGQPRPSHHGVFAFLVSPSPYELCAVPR

[20] = Stability in human plasma assessed as compound remaining at 5 uM incubated for 4 hrs by LC/MS/MS analysis; assay type: ADME, cell-free; conditions: read-out: Stability
[21] = AUC in Sprague-Dawley rat at 5 mg/kg, iv measured upto 24 hrs by LC/MS/MS analysis; assay type: ADME, organism-based; parameters: dose 5 mg/kg, time < 24 hr, route intravenous; conditions: in vivo
[22] = Clearance in Sprague-Dawley rat at 5 mg/kg, iv measured upto 24 hrs by LC/MS/MS analysis; assay type: ADME, organism-based; conditions: in vivo
Cytochrome P450 2C19 = Cytochrome P450 2C19 (Homo sapiens, UniProt P33261); assay: Inhibition of human CYP2C19 using S-mephenytoin as substrate by LC/MS/MS analysis; assay type: ADME
Chain of Cytochrome P450 2C19 (P33261 whole entry): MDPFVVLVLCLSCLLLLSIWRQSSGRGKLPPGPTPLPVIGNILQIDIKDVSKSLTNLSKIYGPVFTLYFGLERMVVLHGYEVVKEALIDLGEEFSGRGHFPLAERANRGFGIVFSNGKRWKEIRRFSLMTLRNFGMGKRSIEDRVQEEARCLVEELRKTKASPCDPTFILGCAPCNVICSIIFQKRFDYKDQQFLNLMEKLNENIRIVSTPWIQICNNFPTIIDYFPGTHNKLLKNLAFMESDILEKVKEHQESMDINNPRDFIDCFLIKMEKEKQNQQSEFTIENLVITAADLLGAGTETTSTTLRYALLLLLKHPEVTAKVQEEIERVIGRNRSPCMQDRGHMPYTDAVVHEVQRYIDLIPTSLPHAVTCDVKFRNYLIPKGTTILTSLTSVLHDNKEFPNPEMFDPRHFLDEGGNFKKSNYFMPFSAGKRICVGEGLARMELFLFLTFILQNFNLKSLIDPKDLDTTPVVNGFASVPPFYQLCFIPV

[23] = AUC in Sprague-Dawley rat at 5 mg/kg, po measured upto 24 hrs by LC/MS/MS analysis; assay type: ADME, organism-based; parameters: dose 5 mg/kg, time < 24 hr, route oral; conditions: in vivo
Hepatitis B virus [24] = assay: Antiviral activity in HBV infected in human HepG2.2.15 cells assessed as reduction in viral replication incubated for 5 days by qPCR analysis; assay type: functional, organism-based; conditions: HepG2.2.15, 120 h

SMILES: O=C(Nc1cc(F)c(F)c(F)c1)c1cc(S(=O)(=O)N2CCC(O)CC2)ccc1O
- EC50 (Hepatitis B virus [1]): > 3.3 µM
- CC50 at 65 h [2]: > 100 µM

SMILES: O=C(Nc1cc(F)c(F)c(F)c1)c1cc(S(=O)(=O)N2CCC(O)CC2)cc2cc[nH]c12
- EC50 (Hepatitis B virus [1]): > 3.3 µM
- CC50 at 65 h [2]: > 100 µM

SMILES: Nc1cc(C(=O)Nc2cc(F)c(F)c(F)c2)cc(S(=O)(=O)N2CCC(O)CC2)c1F
- EC50 (Hepatitis B virus [1]): 0.28 µM
- CC50 at 65 h [2]: 87.9 µM

SMILES: CN(C)c1ccc(S(=O)(=O)N2CCC(O)CC2)cc1C(=O)Nc1cc(F)c(F)c(F)c1
- EC50 (Hepatitis B virus [1]): > 3.3 µM
- CC50 at 65 h [2]: > 100 µM

SMILES: CNc1cc(F)c(S(=O)(=O)N2CCC(O)CC2)cc1C(=O)Nc1cc(F)c(F)c(F)c1
- EC50 (Hepatitis B virus [1]): > 3.3 µM
- CC50 at 65 h [2]: > 100 µM

SMILES: Nc1ccc(S(=O)(=O)N2CCC(O)CC2)cc1C(=O)Nc1cc(F)c(F)c(F)c1
- EC50 (Hepatitis B virus [1]): 0.24 µM
- CC50 at 65 h [2]: 76.9 µM

SMILES: CSc1ccc(S(=O)(=O)N2CCC(O)CC2)cc1C(=O)Nc1cc(F)c(F)c(F)c1
- EC50 (Hepatitis B virus [1]): 0.72 µM
- CC50 at 65 h [2]: > 100 µM

More lines, main results first:

- EC50 (Hepatitis B virus [1]): > 3.3 µM
SMILES: COc1ccc(S(=O)(=O)N2CCC(O)CC2)cc1C(=O)Nc1cc(F)c(F)c(F)c1
- CC50 at 65 h [2]: > 100 µM

- EC50 (Hepatitis B virus [1]): 0.044 µM
- IC50 (Cytochrome P450 1A2): 81.1 µM
- Cmax [3]: 940 ng/mL
- half-life at 1 µM [4]: 0.481 h
- remaining at 4 h, 5 µM [5]: 98.7%
- IC50 (Cytochrome P450 3A4): 27.8 µM
- remaining at 0.5 h, 1 µM [6]: 50.2%
- bioavailability [8]: 80.2%
- Vd [9]: 2.95 L/kg
- remaining at 0.5 h, 1 µM [10]: 49.2%
- AUC(0-t) at 24 h [11]: 6300 ng·h/mL
- fraction unbound at 4 h, 5 µM [12]: 0.0073
- Tmax [13]: 1.58 h
- IC50 (Cytochrome P450 2C9): 17 µM
- remaining at 4 h, 5 µM [15]: 90.1%
- half-life [17]: 3.44 h
- AUC(0-t) at 24 h [18]: 5050 ng·h/mL
- half-life [19]: 6.67 h
- IC50 (Cytochrome P450 2D6): 32.6 µM
- remaining at 4 h, 5 µM [20]: 71.9%
- AUC at 24 h [21]: 6420 ng·h/mL
- clearance [22]: 13.5 mL/min/kg
- IC50 (Cytochrome P450 2C19): 23.1 µM
- AUC at 24 h [23]: 5090 ng·h/mL
SMILES: Nc1cc(F)c(S(=O)(=O)N2CCC(O)CC2)cc1C(=O)Nc1cc(F)c(F)c(F)c1
- IC50 [7]: 10.9 µM
- IC50 [14]: 8.78 µM
- Ratio EC50 (Hepatitis B virus [16]): 9
- CC50 at 65 h [2]: 48.9 µM

- EC50 (Hepatitis B virus [1]): > 3.3 µM
SMILES: O=C(Nc1cc(F)c(F)c(F)c1)c1cc(Br)c(F)c(S(=O)(=O)N2CCC(O)CC2)c1
- CC50 at 65 h [2]: > 100 µM

- EC50 (Hepatitis B virus [1]): 0.36 µM
- EC50 (Hepatitis B virus [24]): 0.0064 µM
SMILES: O=C(Nc1cc(F)c(F)c(F)c1)c1ccc(F)c(S(=O)(=O)N2CCC(O)CC2)c1
- CC50 at 65 h [2]: 57.7 µM

- EC50 (Hepatitis B virus [1]): 0.97 µM
SMILES: O=C(Nc1cc(F)c(F)c(F)c1)c1cccc(S(=O)(=O)N2CCC(O)CC2)c1
- CC50 at 65 h [2]: 77.7 µM
